Values after ≈ are worked out from the molar mass of the structure shown. Read-outs that look alike come from different tables or passages of the source.
What was measured:
[1] = test system: Cryptococcus neoformans (H99); test: In vitro antimicrobial activity, CLSI microbroth dilution (yeast); format: cell-based
Description: The antimicrobial activities of all derivatives against C. neoformans (H99), and clinical isolate of P. mirabilisas urease positive microorganism, were tested as recommended by the Clinical and Laboratory Standards Institute (CLSI) (M07-A9 for bacteria; M27-A3 for yeasts). The compounds were diluted, and stock solutions of 20 mg/mL in DMSO were prepared. Mueller–Hinton Broth (HiMedia) and RPMI-1640 (Sigma) were prepared as recommended for antimicrobial susceptibility testing of bacterial and fungal strains, respectively. Two-fold dilutions were made in the range of 1–512 μg/mL for tested compounds. The microbroth dilution test was accomplished using a 96-well microtiter plate containing growth control (drug free wellls) and sterility control (only broth media). The antimicrobial susceptibility test was accomplished by adding a cell suspension adjusted to the 0.5 McFarland standard (1–2 × 10^8 CFU/mL for bacterial strains; 1–5 × 10^6 cells/mL for yeast) to different concentrations of tested compounds. […] All experiments were performed in duplicates.

Jack bean urease = Jack bean urease (Canavalia ensiformis, UniProt P07374); test: Screening of urease inhibitory activities (indophenol method, enzymatic); format: biochemical
Sequence of Jack bean urease (P07374 whole entry, looked up): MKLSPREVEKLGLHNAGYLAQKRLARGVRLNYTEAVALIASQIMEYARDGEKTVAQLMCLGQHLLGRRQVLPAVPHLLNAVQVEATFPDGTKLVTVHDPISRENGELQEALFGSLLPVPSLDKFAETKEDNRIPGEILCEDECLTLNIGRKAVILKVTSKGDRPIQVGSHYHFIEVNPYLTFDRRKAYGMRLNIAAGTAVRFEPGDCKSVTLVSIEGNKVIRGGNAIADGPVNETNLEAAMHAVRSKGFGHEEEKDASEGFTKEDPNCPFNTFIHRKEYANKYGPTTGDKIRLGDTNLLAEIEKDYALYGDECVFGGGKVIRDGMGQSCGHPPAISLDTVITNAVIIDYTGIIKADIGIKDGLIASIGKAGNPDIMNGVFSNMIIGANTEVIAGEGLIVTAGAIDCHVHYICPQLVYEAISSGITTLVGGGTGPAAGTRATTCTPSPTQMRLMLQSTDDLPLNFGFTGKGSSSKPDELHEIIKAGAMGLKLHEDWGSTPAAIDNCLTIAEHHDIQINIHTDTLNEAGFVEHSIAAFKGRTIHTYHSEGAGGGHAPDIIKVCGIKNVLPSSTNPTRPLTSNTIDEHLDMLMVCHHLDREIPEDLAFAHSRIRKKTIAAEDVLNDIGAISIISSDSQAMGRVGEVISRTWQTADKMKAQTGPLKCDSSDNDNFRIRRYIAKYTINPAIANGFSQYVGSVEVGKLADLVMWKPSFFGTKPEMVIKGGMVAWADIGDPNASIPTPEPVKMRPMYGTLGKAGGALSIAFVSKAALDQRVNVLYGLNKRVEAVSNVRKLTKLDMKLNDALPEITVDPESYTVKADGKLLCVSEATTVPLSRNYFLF
Description: Urease inhibition effects of the synthesized compounds were determined according to the previously reported procedure[37]–[39]. Briefly, 100 μL of the synthesized compounds at different concentrations was added to 850 μL of urea as substrate and 50 μL urease (3 mg/mL) in phosphate buffer, pH = 7.4). After 30 min, to 100 μL of the incubated solution, 500 μL of solution I (5.0 g phenol and 25.0 mg sodium nitroprusside in 500 mL water) was added, followed by the addition of 500 μL of solution II (2.5 g sodium hydroxide, 4.2 mL sodium hypochlorite, and 5% chlorine in 500 mL water) which was further incubated at 37 °C for 30 min. The absorbance of blue-colored indophenol of each cell is related to the percentage of enzyme inhibition using the following equation at 625 nm. The IC50 values for all synthesized compounds were calculated using GraphPad Prism software (GraphPad Software, Inc., San Diego, CA).

Proteus mirabilis = test: In vitro antimicrobial activity, CLSI microbroth dilution (bacteria); format: cell-based; conditions: clinical isolate
Description: M27-A3 for yeasts). The compounds were diluted, and stock solutions of 20 mg/mL in DMSO were prepared. Mueller-Hinton Broth (HiMedia) and RPMI-1640 (Sigma) were prepared as recommended for antimicrobial susceptibility testing of bacterial and fungal strains, respectively. Two-fold dilutions were made in the range of 1-512 μg/mL for tested compounds. […] All experiments were performed in duplicates.

C. neoformans (H99) = test: Anti-ureolytic activity, colorimetric urea broth microdilution; format: cell-based, Cryptococcus neoformans; conditions: read after three days, means ± SD of 3 independent experiments; for IC50: Cryptococcus neoformans, 72 h
Description: (§1) The colorimetric microdilution technique using urea broth media (Merck) was used to examine the ureolytic activity of C. neoformans (H99), and clinical isolate of P. mirabilis treated with tested substances (supplemented with glucose; pH = 6 for C. neoformans). Compounds in the concentration range of 1 to 512 μg/mL were exposed to ureolytic microorganisms, and the color of the medium was evaluated visually and spectroscopically at 560 nm after three days for C. neoformans and 24 h for P. mirabilis. The positive control, which included ureolytic bacteria but no drugs, changed color from yellow to dark pink or magenta. This shifts, allowing the determination of the inhibitory activity of compounds against the urease activity of organisms even without a microliter plate reader[45],[46].

P. mirabilis = test: as above; format: cell-based, Proteus mirabilis; conditions: read after 24 h, means ± SD of 3 independent experiments; for IC50: Proteus mirabilis, read-out: urease inhibitory activity IC50 (µg/mL) ± SD
Description: as §1

urease [2] = conditions: cited from earlier work
urease [3] = target: urease (Canavalia ensiformis, UniProt P07374); test: Kinetic study of urease inhibition (Lineweaver–Burk); format: biochemical, Jack bean
Sequence of urease (Canavalia ensiformis, UniProt P07374) (P07374 whole entry, looked up): as above
Description: The kinetic study for the inhibition of urease by compound 6a was carried out using four different concentrations of inhibitor. Compound 6a was tested at […] concentrations against urease for the kinetic study. The Lineweaver–Burk reciprocal plot was constructed by plotting 1/V against 1/[S] at variable concentrations of the substrate urea (3.12 to 100 mM). The inhibition constant Ki was calculated by the plot of slopes versus the corresponding concentrations of compound 6a.

[4] = C. neoformans, read-out: urease inhibitory activity IC50 (µg/mL) ± SD
[5] = urease enzymatic assessment, mean ± SD of three independent experiments, read-out: IC50 (µM) ± SD
[6] = read-out: urease inhibitory activity IC50 (µg/mL) ± SD, C. neoformans

Row | Structure (SMILES) | MIC ([1]; read-out: MIC) [µg/mL] | IC50 (Jack bean urease) [µM] | MIC (Proteus mirabilis; read-out: MIC) [µg/mL] | IC50 (C. neoformans (H99); [4]) [µg/mL] | IC50 (P. mirabilis) [µg/mL] | melting point [°C] | also measured
1 | OC(Cn1cncn1)(Cn1cncn1)c1ccc(F)cc1F [Fluconazole, reference compound] | 2 (≈ 6.53 µM) |  |  |  |  |  | 
2 | Fc1ccccc1CSc1nn2c(-c3ccccc3)nnc2s1 [Compound 6b, 6-((2-fluorobenzyl)thio)-3-phenyl-[1,2,4]triazolo[3,4-b][1,3,4]thiadiazole] | > 256 | 1.51 ± 0.21 | 256 (≈ 748 µM) | 111 ± 7.4 (≈ 324 µM) | 87.3 ± 4.9 (≈ 255 µM) | 190 to 192 | 
3 | Clc1ccccc1CSc1nn2c(-c3ccccc3)nnc2s1 [Compound 6e, 6-((2-chlorobenzyl)thio)-3-phenyl-[1,2,4]triazolo[3,4-b][1,3,4]thiadiazole] | > 256 | 8.32 ± 1.21 | 256 (≈ 713 µM) | 102 ± 3.3 (≈ 284 µM) | 93.3 ± 5.2 (≈ 260 µM) | 224 to 226 | MIC (µg/mL) [1]: almost inactive
4 | Brc1ccc(CSc2nn3c(-c4ccccc4)nnc3s2)cc1 [Compound 6k, 6-((4-bromobenzyl)thio)-3-phenyl-[1,2,4]triazolo[3,4-b][1,3,4]thiadiazole] |  |  |  |  |  |  | IC50 (Jack bean urease; [5]): 1.53 ± 0.17 µM; MIC [1]: > 256 µg/mL; MIC (Proteus mirabilis): 256 µg/mL (≈ 635 µM); urease inhibitory activity IC50 (µg/mL) ± SD (C. neoformans (H99); C. neoformans): 118.7 ± 5.5 µg/mL; urease inhibitory activity IC50 (µg/mL) ± SD (P. mirabilis): 113.7 ± 4.6 µg/mL
5 | CCNc1nnc(Cc2nc3ccccc3c(=O)n2Cc2ccc(F)cc2)s1 [E] |  |  |  |  |  |  | IC50 (urease [2]; urease): 1.88 ± 0.17 µg/mL
6 | O=[N+]([O-])c1ccc(CSc2nn3c(-c4ccccc4)nnc3s2)cc1 [Compound 6l, 6-((4-nitrobenzyl)thio)-3-phenyl-[1,2,4]triazolo[3,4-b][1,3,4]thiadiazole] |  |  |  |  |  |  | IC50 (Jack bean urease; [5]): 2.22 ± 0.18 µM; MIC [1]: > 256 µg/mL; MIC (Proteus mirabilis): 256 µg/mL (≈ 693 µM); urease inhibitory activity IC50 (µg/mL) ± SD (C. neoformans (H99); C. neoformans): 113.6 ± 5.4 µg/mL; urease inhibitory activity IC50 (µg/mL) ± SD (P. mirabilis): 91.8 ± 7.0 µg/mL
7 | Brc1cccc(CSc2nn3c(-c4ccccc4)nnc3s2)c1 [Compound 6j, 6-((3-bromobenzyl)thio)-3-phenyl-[1,2,4]triazolo[3,4-b][1,3,4]thiadiazole] | > 256 | 1.05 ± 0.34 | 256 (≈ 635 µM) | 111 ± 4.8 (≈ 276 µM) | 112 ± 6.9 (≈ 278 µM) | 225 to 227 | 
8 | Fc1cccc(CSc2nn3c(-c4ccccc4)nnc3s2)c1 [Compound 6c, 6-((3-fluorobenzyl)thio)-3-phenyl-[1,2,4]triazolo[3,4-b][1,3,4]thiadiazole] | > 256 | 1.4 ± 0.29 | 256 (≈ 748 µM) | 117 ± 6.4 (≈ 343 µM) | 79.8 ± 3.5 (≈ 233 µM) | 216 to 218 | 
9 | O=C(NC1CCCCC1)C(c1cccs1)N(C(=O)CSc1nnc(-c2ccc([N+](=O)[O-])o2)s1)c1ccccc1 (centres unmarked) [F] |  |  |  |  |  |  | improvement in the inhibitory potency against urease compared to thiourea (urease [2]): tenfold; mode of inhibition (urease [2]; urease): non-competitive
10 | CSc1nn2c(-c3ccccc3)nnc2s1 [Compound 6o, 6-(methylthio)-3-phenyl-[1,2,4]triazolo[3,4-b][1,3,4]thiadiazole] |  |  |  |  |  | 213 to 215 | 
11 | Brc1ccccc1CSc1nn2c(-c3ccccc3)nnc2s1 [Compound 6i, 6-((2-bromobenzyl)thio)-3-phenyl-[1,2,4]triazolo[3,4-b][1,3,4]thiadiazole] | > 256 | 1.59 ± 0.14 | 256 (≈ 635 µM) | 112 ± 6.7 (≈ 278 µM) | 109 ± 6.2 (≈ 271 µM) | 210 to 212 | 
12 | Clc1cccc(CSc2nn3c(-c4ccccc4)nnc3s2)c1 [Compound 6f, 6-((3-chlorobenzyl)thio)-3-phenyl-[1,2,4]triazolo[3,4-b][1,3,4]thiadiazole] | 1 (≈ 2.79 µM) | 1.25 ± 0.19 | 256 (≈ 713 µM) | 87.5 ± 8.1 (≈ 244 µM) | 73.2 ± 5.5 (≈ 204 µM) | 216 to 218 | MFC/MBC [1]: 2 µg/mL (≈ 5.57 µM)
13 | Cc1ccccc1CSc1nn2c(-c3ccccc3)nnc2s1 [Compound 6m, 6-((2-methylbenzyl)thio)-3-phenyl-[1,2,4]triazolo[3,4-b][1,3,4]thiadiazole] |  |  |  |  |  |  | IC50 (Jack bean urease; [5]): 1.6 ± 0.23 µM; MIC [1]: > 256 µg/mL; MIC (Proteus mirabilis): 256 µg/mL (≈ 756 µM); urease inhibitory activity IC50 (µg/mL) ± SD (C. neoformans (H99); C. neoformans): 110.9 ± 3.8 µg/mL; urease inhibitory activity IC50 (µg/mL) ± SD (P. mirabilis): 95.7 ± 6.6 µg/mL
14 | Cc1ncc([N+](=O)[O-])n1Cc1cn(Cc2ccc(F)cc2)nn1 [C] |  |  |  |  |  |  | IC50 (urease [2]; urease, read-out: IC50): 1980 ± 250 nM
15 | c1ccc(CSc2nn3c(-c4ccccc4)nnc3s2)cc1 [Compound 6a, 6-(benzylthio)-3-phenyl-[1,2,4]triazolo[3,4-b][1,3,4]thiadiazole] | > 256 | 0.87 ± 0.09 | 256 (≈ 789 µM) |  | 78.2 ± 8.5 (≈ 241 µM) | 217 to 219 | improvement in the activity vs positive control (Jack bean urease; vs thiourea): around 27 times; Ki (urease [3]): 1370 nM; type of inhibition (urease [3]; Lineweaver–Burk plot): competitive; IC50 (C. neoformans (H99); [6]): > 124 µg/mL
16 | Cc1ccc(-n2c(C(O)c3ccccc3)n[nH]c2=S)cc1 (centres unmarked) [A] |  |  |  |  |  |  | IC50 (urease [2]; urease, read-out: IC50): 16700 ± 178 nM
17 | Fc1ccc(CSc2nn3c(-c4ccccc4)nnc3s2)cc1 [Compound 6d, 6-((4-fluorobenzyl)thio)-3-phenyl-[1,2,4]triazolo[3,4-b][1,3,4]thiadiazole] | > 256 | 1.01 ± 0.13 | 256 (≈ 748 µM) | 118 ± 8.6 (≈ 344 µM) | 91 ± 6.4 (≈ 266 µM) | 199 to 201 | 
18 | Cc1cccc(CSc2nn3c(-c4ccccc4)nnc3s2)c1 [Compound 6n, 6-((3-methylbenzyl)thio)-3-phenyl-[1,2,4]triazolo[3,4-b][1,3,4]thiadiazole] |  |  |  |  |  |  | IC50 (Jack bean urease; [5]): 1.23 ± 0.56 µM; MIC [1]: > 256 µg/mL; MIC (Proteus mirabilis): 256 µg/mL (≈ 756 µM); urease inhibitory activity IC50 (µg/mL) ± SD (C. neoformans (H99); C. neoformans): 112.3 ± 4.6 µg/mL; urease inhibitory activity IC50 (µg/mL) ± SD (P. mirabilis): 96.8 ± 4.7 µg/mL
19 | Clc1ccc(CSc2nn3c(-c4ccccc4)nnc3s2)cc1Cl [Compound 6h, 6-((3,4-dichlorobenzyl)thio)-3-phenyl-[1,2,4]triazolo[3,4-b][1,3,4]thiadiazole] | 0.5 (≈ 1.27 µM) | 1.41 ± 0.32 | 256 (≈ 651 µM) | 83.7 ± 3.2 (≈ 213 µM) | 74.5 ± 4.7 (≈ 189 µM) | 215 to 217 | MFC/MBC [1]: 0.5 µg/mL (≈ 1.27 µM)
20 | Clc1ccc(CSc2nn3c(-c4ccccc4)nnc3s2)cc1 [Compound 6g, 6-((4-chlorobenzyl)thio)-3-phenyl-[1,2,4]triazolo[3,4-b][1,3,4]thiadiazole] | 2 (≈ 5.57 µM) | 1.68 ± 0.73 | 256 (≈ 713 µM) |  | 75.4 ± 6.1 (≈ 210 µM) | 218 to 220 | MFC/MBC [1]: 4 µg/mL (≈ 11.1 µM); urease inhibitory activity IC50 (µg/mL) ± SD (C. neoformans (H99); C. neoformans): 94.3 ± 5.9 µg/mL; IC50 (C. neoformans (H99); [6]): 93.3 µg/mL (≈ 260 µM)
21 | NC(N)=S [Thiourea, reference compound] |  |  |  |  |  |  | IC50 (Jack bean urease; [5]): 22.5 ± 2.34 µM
22 | COc1ccc(NC(=O)NCc2cn(Cc3ccc(Cl)cc3Cl)nn2)cc1 [B] |  |  |  |  |  |  | IC50 (urease [2]; urease, read-out: IC50): 22810 ± 50 nM
23 | Cc1cccc(C)c1Nc1nnc(-c2ccc(Cl)cc2)s1 [D] |  |  |  |  |  |  | IC50 (urease [2]; urease, read-out: IC50): 214700 ± 160 nM

Source: article PMC10287669, “[1,2,4]triazolo[3,4-b][1,3,4]thiadiazole derivatives as new therapeutic candidates against urease positive microorganisms: design, synthesis, pharmacological evaluations, and in silico studies” (Scientific Reports, 2023)
